Numbers after ± are expanded uncertainties.
Conditions: Liquid, Closed cell (Static) method

SMILES	vapor or sublimation pressure (293.15 K)	vapor or sublimation pressure (303.15 K)	vapor or sublimation pressure (313.15 K)
C=C(F)C(F)(F)F [2,3,3,3-tetrafluoro-1-propene]	591.5 ± 3.5 kPa	783.6 ± 3.8 kPa	1018.9 ± 4.3 kPa
CC(F)(Cl)C(F)(F)F (stereo unspecified) [2-chloro-1,1,1,2-tetrafluoropropane]	128.3 ± 3 kPa	181.6 ± 3.1 kPa	247.6 ± 3.1 kPa

Source: the NIST ThermoML archive (doi:10.1021/je501130r)
